Test results taken from patent US20020137929A1, “1 - (3-heterocyclylphenyl) isothiourea, -isourea, -guanidine and -amidine herbicidal agents” (Intellectual Property Department, BASF Aktiengesellschaft, priority 1998, published 2002).

Tests used:
AMBEL (Ragweed, Common) [1] = test: Preemergence herbicidal evaluation; assay type: in vivo, Ambrosia artemisifolia; settings: rated 4-5 weeks after treatment
Procedure, shortened: (§1)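 Visual 0-9 rating vs control (stand, vigor, malformation, size, chlorosis, overall appearance), scored 4-5 wk after spraying. Seeded soil cups were treated preemergence with compound in aqueous acetone, ~0.0156-0.500 kg/ha equivalent.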

[2] = test system: CHEAL (Lambsquarters, Common); test: Postemergence herbicidal evaluation; assay type: in vivo, Chenopodium album; settings: postemergence
Procedure, shortened: (§2)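 Compound is applied as a foliar spray to seedlings about two weeks old, formulated in equal parts acetone and water with 0.5% TWEEN 20 and delivered at 40 psi to give about 0.0156–0.500 kg per hectare. Injury is rated visually 0–9 after four to five weeks.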

[3] = test system: SAGPY (Arrowhead (Pygmaea)); test: Preemergence weed control under flooded paddy conditions; assay type: in vivo, Sagittaria pygmaea; settings: rated 3-4 weeks after treatment
Procedure, shortened: (§3)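 Seeds or propagules sown in silt loam kept flooded 1.5-3 cm; compounds in 50/50 acetone/water pipetted into flood water at about 0.0313 to 0.500 kg/ha. Greenhouse; visual 0-9 rating versus untreated control 3-4 weeks after treatment.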

ECHCG (Barnyardgrass) = test: Postemergence herbicidal evaluation; assay type: in vivo, Echinochloa crus-galli; settings: postemergence
Procedure, shortened: as §2

MOOVA (Monochoria) = test: Preemergence weed control under flooded paddy conditions; assay type: in vivo, Monochoria vaginalis; settings: rated 3-4 weeks after treatment
Procedure, shortened: as §3

[4] = test system: CHEAL (Lambsquarters, Common); test: Preemergence herbicidal evaluation; assay type: in vivo, Chenopodium album; settings: rated 4-5 weeks after treatment
Procedure, shortened: as §1

ORYSAT (Rice, Tebonnet) = test: Preemergence herbicidal evaluation; assay type: in vivo, Oryza sativa, (L.) Tebonnet; settings: rated 4-5 weeks after treatment
Procedure, shortened: as §1

[5] = test system: GLXMAW (Soybean, Williams); test: Postemergence herbicidal evaluation; assay type: in vivo, Glycine max, (L.) Merr. cv Williams; settings: postemergence
Procedure, shortened: as §2

[6] = test system: IPOHE (Morningglory, Ivyleaf); test: Preemergence herbicidal evaluation; assay type: in vivo, Ipomoea hederacea; settings: rated 4-5 weeks after treatment
Procedure, shortened: as §1

ABUTH (Velvetleaf) = test: Preemergence herbicidal evaluation; assay type: in vivo, Abutilon theophrasti; settings: rated 4-5 weeks after treatment
Procedure, shortened: as §1

[7] = test system: IPOHE (Morningglory, Ivyleaf); test: Postemergence herbicidal evaluation; assay type: in vivo, Ipomoea hederacea; settings: postemergence
Procedure, shortened: as §2

AMBEL (Ragweed, Common) [8] = test: Postemergence herbicidal evaluation; assay type: in vivo, Ambrosia artemisifolia; settings: postemergence
Procedure, shortened: as §2

[9] = test system: TRZAWR (Wheat, Winter, cv Riband); test: Postemergence herbicidal evaluation; assay type: in vivo, Triticum aestivum; settings: postemergence
Procedure, shortened: as §2

CASOB (Sicklepod) [10] = test: Postemergence herbicidal evaluation; assay type: in vivo, Cassia obtusifolia; settings: postemergence
Procedure, shortened: as §2

[11] = test system: GLXMAW (Soybean, Williams); test: Preemergence herbicidal evaluation; assay type: in vivo, Glycine max, (L.) Merr. cv Williams; settings: rated 4-5 weeks after treatment
Procedure, shortened: as §1

CASOB (Sicklepod) [12] = test: Preemergence herbicidal evaluation; assay type: in vivo, Cassia obtusifolia; settings: rated 4-5 weeks after treatment
Procedure, shortened: as §1

CN1C(=O)C(CC(=O)NO)SC1=Nc1cc(-n2c(=O)cc(C(F)(F)F)n(C)c2=O)c(F)cc1Cl (stereo not drawn) [Compound 162, 2-{{2-Chloro-5-[3,6-dihydro-3-methyl-2,6-dioxo-4-(trifluoromethyl)-1(2H)-pyrimidinyl]-4-fluorophenyl}imino}-3-methyl-4-oxo-5-thiazolidineacetohydroxamic acid]
8.5: herbicidal rating GLXMAW ([5]; rate 0.0625 kg/ha)
5.0: Preemergence herbicidal rating AMBEL (AMBEL (Ragweed, Common) [1]; 0.0625 kg/ha) | Preemergence herbicidal rating ORYSAT (ORYSAT (Rice, Tebonnet); 0.0625 kg/ha) | Preemergence herbicidal rating GLXMAW ([11]; 0.1250 kg/ha)
7.0: herbicidal effect rating, MOOVA (MOOVA (Monochoria); 0.0313 kg/ha) | herbicidal effect rating, MOOVA (MOOVA (Monochoria); 0.0625 kg/ha) | herbicidal effect rating, MOOVA (MOOVA (Monochoria); 0.1250 kg/ha)
0.0: Preemergence herbicidal rating AMBEL (AMBEL (Ragweed, Common) [1]; 0.0156 kg/ha) | herbicidal effect rating, SAGPY ([3]; 0.0313 kg/ha) | herbicidal rating ECHCG (ECHCG (Barnyardgrass); rate 0.0156 kg/ha) | herbicidal rating ECHCG (ECHCG (Barnyardgrass); rate 0.0313 kg/ha) | herbicidal rating ECHCG (ECHCG (Barnyardgrass); rate 0.0625 kg/ha) | Preemergence herbicidal rating IPOHE ([6]; 0.0156 kg/ha) | Preemergence herbicidal rating IPOHE ([6]; 0.0313 kg/ha) | herbicidal rating CASOB (CASOB (Sicklepod) [10]; rate 0.0156 kg/ha) | herbicidal rating CASOB (CASOB (Sicklepod) [10]; rate 0.0313 kg/ha) | Preemergence herbicidal rating CASOB (CASOB (Sicklepod) [12]; 0.0156 kg/ha) | Preemergence herbicidal rating CASOB (CASOB (Sicklepod) [12]; 0.0625 kg/ha) | Preemergence herbicidal rating CASOB (CASOB (Sicklepod) [12]; 0.1250 kg/ha)
9.0: Preemergence herbicidal rating AMBEL (AMBEL (Ragweed, Common) [1]; 0.1250 kg/ha) | Preemergence herbicidal rating AMBEL (AMBEL (Ragweed, Common) [1]; 0.2500 kg/ha) | herbicidal rating CHEAL ([2]; rate 0.0156 kg/ha) | herbicidal rating CHEAL ([2]; rate 0.0313 kg/ha) | herbicidal rating CHEAL ([2]; rate 0.0625 kg/ha) | herbicidal effect rating, MOOVA (MOOVA (Monochoria); 0.2500 kg/ha) | Preemergence herbicidal rating CHEAL ([4]; 0.0156 kg/ha) | Preemergence herbicidal rating CHEAL ([4]; 0.0313 kg/ha) | Preemergence herbicidal rating CHEAL ([4]; 0.0625 kg/ha) | Preemergence herbicidal rating CHEAL ([4]; 0.1250 kg/ha) | Preemergence herbicidal rating CHEAL ([4]; 0.2500 kg/ha) | Preemergence herbicidal rating IPOHE ([6]; 0.1250 kg/ha) | Preemergence herbicidal rating IPOHE ([6]; 0.2500 kg/ha) | Preemergence herbicidal rating ABUTH (ABUTH (Velvetleaf); 0.0156 kg/ha) | Preemergence herbicidal rating ABUTH (ABUTH (Velvetleaf); 0.0313 kg/ha) | Preemergence herbicidal rating ABUTH (ABUTH (Velvetleaf); 0.0625 kg/ha) | Preemergence herbicidal rating ABUTH (ABUTH (Velvetleaf); 0.1250 kg/ha) | Preemergence herbicidal rating ABUTH (ABUTH (Velvetleaf); 0.2500 kg/ha) | herbicidal rating IPOHE ([7]; rate 0.0156 kg/ha) | herbicidal rating IPOHE ([7]; rate 0.0313 kg/ha) | herbicidal rating IPOHE ([7]; rate 0.0625 kg/ha) | herbicidal rating AMBEL (AMBEL (Ragweed, Common) [8]; rate 0.0156 kg/ha) | herbicidal rating AMBEL (AMBEL (Ragweed, Common) [8]; rate 0.0313 kg/ha) | herbicidal rating AMBEL (AMBEL (Ragweed, Common) [8]; rate 0.0625 kg/ha) | Preemergence herbicidal rating GLXMAW ([11]; 0.2500 kg/ha)
2.0: Preemergence herbicidal rating ORYSAT (ORYSAT (Rice, Tebonnet); 0.0156 kg/ha) | herbicidal rating CASOB (CASOB (Sicklepod) [10]; rate 0.0625 kg/ha) | Preemergence herbicidal rating GLXMAW ([11]; 0.0156 kg/ha) | Preemergence herbicidal rating GLXMAW ([11]; 0.0313 kg/ha) | Preemergence herbicidal rating GLXMAW ([11]; 0.0625 kg/ha)
6.0: Preemergence herbicidal rating ORYSAT (ORYSAT (Rice, Tebonnet); 0.1250 kg/ha) | herbicidal rating GLXMAW ([5]; rate 0.0156 kg/ha)
3.5: herbicidal rating TRZAWR ([9]; rate 0.0156 kg/ha) | herbicidal rating TRZAWR ([9]; rate 0.0313 kg/ha) | herbicidal rating TRZAWR ([9]; rate 0.0625 kg/ha)
4.0: Preemergence herbicidal rating IPOHE ([6]; 0.0625 kg/ha) | Preemergence herbicidal rating CASOB (CASOB (Sicklepod) [12]; 0.2500 kg/ha)
3.0: Preemergence herbicidal rating AMBEL (AMBEL (Ragweed, Common) [1]; 0.0313 kg/ha) | herbicidal effect rating, SAGPY ([3]; 0.0625 kg/ha) | herbicidal effect rating, SAGPY ([3]; 0.1250 kg/ha) | herbicidal effect rating, SAGPY ([3]; 0.2500 kg/ha) | Preemergence herbicidal rating ORYSAT (ORYSAT (Rice, Tebonnet); 0.0313 kg/ha)
8.0: Preemergence herbicidal rating ORYSAT (ORYSAT (Rice, Tebonnet); 0.2500 kg/ha)
6.5: herbicidal rating GLXMAW ([5]; rate 0.0313 kg/ha)
